Assay results: patent publication US20250346571A1, “BICYCLIC DERIVATIVE PARP INHIBITOR AND USE THEREOF” (XIZANG HAISCO PHARMACEUTICAL CO., LTD., priority 2022, published 2025)

Tests used:
PARP-1 enzyme = PARP-1 enzyme (Homo sapiens (Human), UniProt P09874); test: PARP-1 enzyme activity test (chemical fluorescence detection kit, BPS Bioscience); format: biochemical; conditions: grades; read-out: PARP-1 enzyme activity IC50
Protocol: PARP-1 chemical fluorescence detection kit was purchased from BPS Bioscience. The histone solution in the kit was diluted 5× with 1×PBS, and 25 μL of the diluted histone solution was added to a microwell plate and incubated overnight at 4° C. After the incubation, the plate was washed three times with PBST (0.05% Tween-20). 100 μL of the blocking solution was added to the microwell plate and incubated at 25° C. for 90 minutes. After the incubation was completed, the plate was washed three times with PBST. 2.5 μL of compounds at different concentrations diluted in test buffer and 12.5 μL of substrate mixed solution (1.25 μL 10×PARP test buffer; 1.25 μL 10×PARP test mixed solution; 2.5 μL Activated DNA, 7.5 μL double-distilled water) were added to the microwell plate. The PARP-1 enzyme was diluted to 2 ng/μL, […] was added to the microwell plate, and the reaction system was incubated at 25° C. for 60 minutes.
After the incubation was completed, the plate was washed three times with PBST. Streptavidin-HRP was diluted 50× with a blocking solution, and 25 μL of the diluent was added to the microwell plate and incubated at 25° C. for 30 minutes. After the incubation, the plate was washed three times with PBST. ELISA ECL substrate A and substrate B were uniformly mixed at a ratio of 1:1 (v/v), 50 μL of the mixture was added to the microwell plate, and the chemiluminescence value was read.
The inhibition rate was calculated according to formula 1, where RLUsample was the readout of the compound well, RLUmax was the readout of the solvent control well, and RLUmin was the readout of the control well without the PARP-1 enzyme. Curve fitting was performed by four parameters (log(inhibitor) vs. response—Variable slope) using GraphPad Prism software, and the ICso value was calculated.
Inhibition %=(1−(RLUsample−RLUmin)/(RLUmax−RLUmin))×100% (formula 1)

[1] = Pharmacokinetic test in monkeys; format: in vivo, cynomolgus monkeys
Protocol: 6.1 Experimental animal: male cynomolgus monkeys, 3-5 kg, 3-6 years old, 4 monkeys/compound, purchased from Suzhou Xishan Biotechnology Inc.
6.2 Test method: On the day of the experiment, 8 monkeys were randomly grouped according to their body weights. The animals were fasted with water available for 14 to 18 h one day before the administration, and were fed 4 h after the administration.
Before and after the administration, 1.0 mL of blood was taken from the limb veins and placed in an EDTAK2 centrifuge tube. The blood was centrifuged at 5000 rpm and 4° C. for 10 min to collect plasma. The blood collection time points for the intravenous administration group were 0, 5 min, 15 min, 30 min, 1 h, 2 h, 4 h, 6 h, 8 h, 10 h, 12 h, 24 h and 48 h. Before analysis and detection, all samples were stored at −80° C. The samples were analyzed quantitatively by LC-MS/MS.

[2] = Pharmacokinetic test in beagle dogs; format: in vivo
Protocol: 5.1 Experimental animal: male beagle dogs, about 8-11 kg, 6 beagle dogs/compound, purchased from Beijing Marshall Biotechnology Co., Ltd.
5.2 Test method: on the day of the experiment, 6 beagle dogs were randomly grouped according to their body weights. The animals were fasted with water available for 12 to 14 h one day before the administration and were fed 4 h after the administration. The administration was performed according to Table 7.
Before and after the administration, 1 ml of blood was taken from the jugular veins or limb veins, and placed in an EDTAK2 centrifuge tube. The blood was centrifuged at 5000 rpm and 4° C. for 10 min to collect plasma. The blood collection time points for the intravenous administration group and intragastric administration group were 0, 5 min, 15 min, 30 min, 1 h, 2 h, 4 h, 6 h, 8 h, 10 h, 12 h, 24 h and 48 h. Before analysis and detection, all samples were stored at −80° C. The samples were analyzed quantitatively by LC-MS/MS.

[3] = Pharmacokinetic test in mice; format: in vivo, Balb/c mice
Protocol: 4.1 Experimental animal: male Balb/c mice, 20-25 g, 12 mice/compound, purchased from Chengdu Ddossy Experimental Animals Co., Ltd.
4.2 Experimental design: on the day of the test, 60 Balb/c mice were randomly grouped according to their body weights. The animals were fasted with water available for 12 to 14 h one day before the administration and were fed 4 h after the administration.
Before and after the administration, 0.06 mL ofblood was taken from the orbit of the animals under isoflurane anesthesia and placed in an EDTAK2 centrifuge tube. The blood was centrifuged at 5000 rpm and 4° C. for 10 min to collect plasma. The blood collection time points for the intravenous administration group and intragastric administration group were 0, 5 min, 15 min, 30 min, 1 h, 2 h, 4 h, 6 h, 8 h, and 24 h. The brain tissues were collected at 30 min, 2 h and 24 h after administration of compounds 12, 15 and 18, respectively. The brain tissues were collected 24 hours after administration of compounds 2 and 5, rinsed with cold physiological saline to remove the residual blood on the surface, drained out and then homogenized. Before analysis and detection, all samples were stored at −80° C. The samples were analyzed quantitatively by LC-MS/MS.

MDA-MB-436 cells = test: MDA-MB-436 cell activity test (CellTiter-Glo, 7 days); format: cell-based; conditions: Homo sapiens
Protocol: Breast tumor cells MDA-MB-436 were purchased from ATCC, the culture medium was Leibovitz's L-15+10% FBS, and the cells were cultured in a CO2-free incubator at 37° C. On day 1, the cells in the exponential growth phase were collected, and the cell suspension was adjusted to 4000 cells/135 μL with the culture medium. 135 μL of the cell suspension was added to each well of a 96-well cell culture plate and incubated overnight. On day 2, compounds at different concentrations were added, and the plate was placed in the incubator and incubated for 7 days. After the incubation was completed, according to operation instructions for a CellTiter-Glo kit (Promega, G7573), 75 μL of CTG solution, which was already pre-melted and equilibrated to room temperature, was added to each well, and the mixture was uniformly mixed for 2 min using a microplate shaker. The plate was placed at room temperature for 10 min, and then […] were measured using an Envision2104 plate reader (PerkinElmer). The inhibition rate was calculated using formula (1), where RLUcompound was the readout of the drug treated group, RLUcontrol was the average value of the vehicle control group, and RLUblank was the average value of the cell-free well. The IC50 value was calculated using GraphPad Prism software

[4] = male, cynomolgus monkey, iv, monkeys, i.v. (0.5 mg/kg), plasma
[5] = male, dog, iv, beagle dogs, i.v. (0.2 mg/kg), plasma
[6] = male, Balb/c, mouse, iv, mice, i.v. 2.5 mg/kg, plasma

Chain of PARP-1 enzyme (P09874 whole entry): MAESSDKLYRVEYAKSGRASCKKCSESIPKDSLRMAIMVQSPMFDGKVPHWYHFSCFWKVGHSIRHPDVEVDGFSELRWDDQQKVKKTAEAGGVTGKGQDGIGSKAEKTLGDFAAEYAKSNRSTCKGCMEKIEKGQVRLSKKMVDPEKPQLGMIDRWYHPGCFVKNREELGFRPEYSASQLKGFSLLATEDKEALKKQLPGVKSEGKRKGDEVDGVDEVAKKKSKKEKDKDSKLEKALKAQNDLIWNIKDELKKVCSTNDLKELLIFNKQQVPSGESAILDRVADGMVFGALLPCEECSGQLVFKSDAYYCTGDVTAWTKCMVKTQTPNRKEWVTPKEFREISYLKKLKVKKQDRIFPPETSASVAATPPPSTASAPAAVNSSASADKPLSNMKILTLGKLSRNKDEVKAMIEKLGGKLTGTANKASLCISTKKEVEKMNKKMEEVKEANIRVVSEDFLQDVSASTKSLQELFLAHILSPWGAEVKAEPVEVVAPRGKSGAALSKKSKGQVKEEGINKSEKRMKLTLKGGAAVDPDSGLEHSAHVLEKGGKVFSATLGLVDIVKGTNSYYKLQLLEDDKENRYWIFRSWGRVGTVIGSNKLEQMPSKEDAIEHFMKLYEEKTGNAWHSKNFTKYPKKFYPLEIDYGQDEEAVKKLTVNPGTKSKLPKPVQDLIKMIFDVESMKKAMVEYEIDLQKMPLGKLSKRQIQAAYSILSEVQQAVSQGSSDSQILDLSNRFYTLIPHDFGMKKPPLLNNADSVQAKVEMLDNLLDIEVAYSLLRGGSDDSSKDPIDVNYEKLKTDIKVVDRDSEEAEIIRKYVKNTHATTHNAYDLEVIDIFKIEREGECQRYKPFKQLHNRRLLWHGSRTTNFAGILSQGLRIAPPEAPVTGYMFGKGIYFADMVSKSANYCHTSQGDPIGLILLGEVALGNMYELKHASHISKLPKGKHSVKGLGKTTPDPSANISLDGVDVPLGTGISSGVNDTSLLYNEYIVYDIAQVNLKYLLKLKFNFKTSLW

Q: What does the source list for `O=C(NC1CC1)c1ccc(N2CCN(Cc3ccc4nc(C(F)F)c(=O)[nH]c4c3F)CC2)c(F)n1` [Compound 12, N-cyclopropyl-5-(4-((2-(difluoromethyl)-5-fluoro-3-oxo-3,4-dihydroquinoxalin-6-yl)methyl)piperazin-1-yl)-6-fluoropicolinamide]?
A: IC50 (PARP-1 enzyme): < 5 nM; pharmacokinetic characteristics in monkeys ([1]; conclusion in words): good pharmacokinetic characteristics; AUC(0-t) [1, 4]: 5470 ± 422 ng·h/mL; clearance [1, 4]: 1.5 ± 0.13 mL/min/kg; Vd ([1]; male, cynomolgus monkey, iv, monkeys, i.v. (0.5 mg/kg), plasma, read-out: Vdss): 0.419 ± 0.02 L/kg; bioavailability ([1]; male, cynomolgus monkey, plasma, po, monkeys, i.g. (3 mg/kg)): 63.2 ± 6.1%; AUC(0-t) ([1]; male, cynomolgus monkey, po, monkeys, i.g. (3 mg/kg), plasma): 20700 ± 1990 ng·h/mL; pharmacokinetic characteristics in dogs ([2]; conclusion in words): good pharmacokinetic characteristics; AUC(0-t) [2, 5]: 1950 ± 474 ng·h/mL; clearance [2, 5]: 3.47 ± 0.98 mL/min/kg; Vd ([2]; male, dog, iv, beagle dogs, i.v. (0.2 mg/kg), plasma, read-out: Vdss): 1.52 ± 0.45 L/kg; bioavailability ([2]; male, dog, plasma, po, beagle dogs, i.g. (3 mg/kg)): ≥ 98%; AUC(0-t) ([2]; male, dog, po, beagle dogs, i.g. (3 mg/kg), plasma): 19000 ± 2890 ng·h/mL; pharmacokinetic characteristics in mice ([3]; conclusion in words): good pharmacokinetic characteristics; AUC(0-t) [3, 6]: 19000 ± 3590 ng·h/mL; clearance [3, 6]: 2.16 ± 0.31 mL/min/kg; Vd ([3]; male, Balb/c, mouse, iv, mice, i.v. 2.5 mg/kg, plasma, read-out: Vdss): 0.42 ± 0.017 L/kg; bioavailability ([3]; male, Balb/c, mouse, plasma, po, mice, i.g. 10 mg/kg): ≥ 98%; AUC(0-t) ([3]; male, Balb/c, mouse, po, mice, i.g. 10 mg/kg, plasma): 80800 ng·h/mL; IC50 (MDA-MB-436 cells; MDA-MB-436, 168 h, 7 days incubation): 10.2 nM; inhibition at 10 µM (MDA-MB-436 cells; 10 μM, MDA-MB-436 cells, read-out: Max inh. % 10 μM): 74.5%
